≈ marks a conversion by molar mass, not a printed value.
Legend:
Type in all cases: functional
[1] = tested on: Tineola bisselliella; assay: Insecticidal activity against larvae of Tineola bisselliella assessed as survival at 430 to 4500 ppm after 14 days
[2] = tested on: Lucilia cuprina; assay: Insecticidal activity against newly hatched larvae of Lucilia cuprina assessed as mortality after 24 hr; details: read-out: LD50 (the source's name)
[3] = tested on: Eurhopalus australis; assay: Insecticidal activity against larvae of Anthrenocerus australis assessed as survival at 125 to 4000 ppm after 14 days
[4] = tested on: Eurhopalus australis; assay: Insecticidal activity against larvae of Anthrenocerus australis assessed as survival after 14 days; details: 336 h, read-out: LD50 (the source's name)
[5] = tested on: Eurhopalus australis; assay: Antifeedant activity against larvae of Anthrenocerus australis assessed as amount of food intake at 63 ppm after 14 days (reference value: 55.5 mg)
[6] = tested on: Lucilia cuprina; assay: Insecticidal activity against newly hatched larvae of Lucilia cuprina assessed as survival at 450 to 5130 ppm after 24 hr
[7] = tested on: Tineola bisselliella; assay: Insecticidal activity against larvae of Tineola bisselliella assessed as survival after 14 days; details: 336 h, read-out: LD50 (the source's name)

Q: Which Activity [1] does the source give for `C/C=C1\[C@H]2C=C(C)C[C@]1(N)c1ccc(=O)[nH]c1C2` [HUPERZINE A] here?
A: The Activity was 3%.

Q: And the LC50 [2]?
A: The LC50 was 2380 µg/mL (≈ 9820 µM).

Q: What about the Activity [3] of the same compound?
A: The Activity was 3%.

Q: And the LC50 [4]?
A: The LC50 was 110 µg/mL (≈ 454 µM).

Q: What about the Activity [5] of the same compound?
A: The Activity was 1.5 mg.

Q: And the Activity [6]?
A: The Activity was 8%.

Q: What about the LC50 [7] of the same compound?
A: Its LC50 is 630 µg/mL (≈ 2600 µM).
